The values below come from US8987313B2, “Inhibitors of cytochrome P450” (Gilead Sciences, Inc., priority 2010, dated 2015).

Each structure is given as a SMILES string. Read-outs that look alike come from different tables or passages of the source. A value given as a limit tells only on which side of the number the result lay.

The target in the series is CYP3A4 (Homo sapiens (Human), UniProt P08684). Description: CYP3A Inhibition Assay (human hepatic microsomes; midazolam 1'-hydroxylase and testosterone 6β-hydroxylase activities). As to conditions: pooled human hepatic microsomal fraction. As for the experimental part:
Pooled (n≧15 donors) human hepatic microsomal fraction was obtained from BD-Gentest (Woburn, Mass.) who also supplied hydroxy-terfenadine, 4′-hydroxydiclofenac and NADPH regenerating system. Ritonavir was prepared from commercial Norvir® oral solution (Abbott Laboratories, Abbott Park, Ill.). Other reagents were from Sigma-Aldrich (St. Louis, Mo.) and included terfenadine, fexofenadine, BRL 15572, diclofenac and mefenamic acid.
Incubations were performed in duplicate in 50 mM potassium phosphate buffer, pH 7.4 with NADPH regenerating system used as described by the manufacturer. […] The final substrate concentrations used were equal to the apparent Km values for the activities determined under the same conditions. Inhibitors were dissolved in DMSO, and the final concentration of DMSO, from both substrate and inhibitor vehicles, was 1% (v/v). Incubations were performed at 37° C. with shaking and were initiated by addition of substrate. Aliquots were then removed at […]. Samples were quenched by treatment with an acetonitrile, formic acid, water (94.8%/0.2%/5%, v/v/v) mixture containing internal standard. Precipitated protein was removed by centrifugation at 3000 rpm for […] and aliquots of the supernatant were then subjected to LC-MS analysis.
The LC-MS system consisted of a Waters Acquity UPLC, with a binary solvent manager and a refrigerated (8° C.) sample organizer and sample manager, interfaced to a Micromass Quattro Premier tandem mass spectrometer operating in electrospray ionization mode. The column was a Waters Acquity UPLC BEH C18 2.1×50 mm, […]. Mobile phases consisted of mixtures of acetonitrile, formic acid and water, the composition for mobile phase A being 1%/0.2%/98.8% (v/v/v) and that for mobile phase B being 94.8%/0.2%/5% (v/v/v). The injection volumes were 5 μL and the flow rate was 0.8 mL/min. Concentrations of metabolites were determined by reference to standard curves generated with authentic analytes under the same conditions as the incubations.
IC50 values (the concentration of inhibitor reducing CYP3A activity by 50%) were calculated by non-linear regression using GraphPad Prism 4.0 software and a sigmoidal model.
For midazolam hydroxylase determination the final concentrations of microsomal protein and […] substrate were 0.25 mg/mL and 2.5 μM, respectively, and the LC-MS internal standard was 1α-hydroxytriazolam. […] After incubation at 37° C. for 5 minutes, metabolic reactions were terminated by treatment with quench solution containing the appropriate internal standard and were subsequently centrifuged before aliquots of the supernatant were removed and diluted with 0.1% (v/v) formic acid for LC-MS analysis.
For LC-MS analysis the column was a Phenomenex Synergi Max RP 4 μm column (50×2.0 mm) and the injection volume was 5 μL. The MS/MS ion current metabolite/internal standard peak area ratios (PAR) were measured on an Applied Biosystems SciEx API4000 triple quadrupole mass spectrometer coupled to a Leap CTC PAL autosampler with a 20 μL loop and a Shimadzu LC pump with a 25 μL mixer.

Where [1] appears, read: read-out: CYP3A4 IC50 (μM) (midazolam), midazolam 1'-hydroxylase activity.
Setting [2] is: read-out: CYP3A4 IC50 (μM) (testosterone), testosterone 6β-hydroxylase activity.

CYP3A4, sequence (P08684 whole entry): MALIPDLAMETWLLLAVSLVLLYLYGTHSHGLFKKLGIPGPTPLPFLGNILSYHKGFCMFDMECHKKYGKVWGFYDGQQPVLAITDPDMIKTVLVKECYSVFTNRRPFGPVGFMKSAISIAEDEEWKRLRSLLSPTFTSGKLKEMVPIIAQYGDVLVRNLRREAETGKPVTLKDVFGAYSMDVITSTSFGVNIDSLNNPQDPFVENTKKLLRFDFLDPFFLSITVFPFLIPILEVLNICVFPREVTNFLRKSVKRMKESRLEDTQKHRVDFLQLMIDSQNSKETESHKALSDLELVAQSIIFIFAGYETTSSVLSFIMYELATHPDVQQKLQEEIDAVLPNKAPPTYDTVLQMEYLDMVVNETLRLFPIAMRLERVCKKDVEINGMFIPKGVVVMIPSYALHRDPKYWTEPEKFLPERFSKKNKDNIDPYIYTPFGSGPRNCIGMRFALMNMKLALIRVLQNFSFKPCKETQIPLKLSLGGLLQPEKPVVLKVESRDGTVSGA

One may read the IC50 as the point on the concentration scale where inhibition reaches its midpoint. For the molecule `CC(=O)N[C@H]1C[C@@H](C(=O)N[C@H](CC[C@H](Cc2ccccc2)NC(=O)OCc2cncs2)Cc2ccccc2)N(C(=O)N(C)Cc2csc(C(C)C)n2)C1` [Compound 36], the IC50 is below 0.1 µM under setting [1] and 0.37 µM under setting [2].
For the molecule `CC(C)c1nc(CN(C)C(=O)N2CS(=O)(=O)C[C@H]2C(=O)N[C@H](CC[C@H](Cc2ccccc2)NC(=O)OCc2cncs2)Cc2ccccc2)cs1` [Compound 18], the IC50 was determined as 0.16 µM under setting [1] and 0.26 µM under setting [2].
Taken in the same sequence, the figures for `CC(C)c1nc(CN(C)C(=O)N2C[C@H](O)C[C@H]2C(=O)N[C@H](CC[C@H](Cc2ccccc2)NC(=O)OCc2cncs2)Cc2ccccc2)cs1` [Compound 5] were 0.16 µM and 0.23 µM.
The corresponding values for `CC(C)c1nc(CN(C)C(=O)N2CCN(C)C[C@H]2C(=O)N[C@H](CC[C@H](Cc2ccccc2)NC(=O)OCc2cncs2)Cc2ccccc2)cs1` [Compound 25] are 0.14 µM and 0.3 µM.
In the case of `CC(C)c1nc(CN(C)C(=O)NC2(C(=O)N[C@H](CC[C@H](Cc3ccccc3)NC(=O)OCc3cncs3)Cc3ccccc3)CCN(C)CC2)cs1` [Compound 21], the IC50 runs as follows: under setting [1], 0.19 µM; under setting [2], 0.34 µM.
The corresponding values for `CC(C)c1nc(CN(C)C(=O)N2C[C@@H](O)C[C@H]2C(=O)N[C@H](CC[C@H](Cc2ccccc2)NC(=O)OCc2cncs2)Cc2ccccc2)cs1` [Compound 8] are 0.17 µM and 0.24 µM.
`CC(C)c1nc(CN(C)C(=O)N2C[C@@H](N)C[C@H]2C(=O)N[C@H](CC[C@H](Cc2ccccc2)NC(=O)OCc2cncs2)Cc2ccccc2)cs1` [Compound 29]: the IC50 by setting is: under setting [1], 0.19 µM; under setting [2], 0.31 µM.
Taken in the same sequence, the figures for `CC(C)c1nc(CN(C)C(=O)N2C[C@@H](N(C)C)C[C@H]2C(=O)N[C@H](CC[C@H](Cc2ccccc2)NC(=O)OCc2cncs2)Cc2ccccc2)cs1` [Compound 31] were 0.15 µM and 0.33 µM.
Taken in the same sequence, the figures for `CC(C)c1nc(CN(C)C(=O)N2C[C@H](O)C[C@H]2C(=O)N[C@@H](CC[C@@H](Cc2ccccc2)NC(=O)OCc2cncs2)Cc2ccccc2)cs1` [Compound 11] were 0.12 µM and 0.3 µM.
Taken in the same sequence, the figures for `CC(C)c1nc(CN(C)C(=O)N2Cc3nc[nH]c3C[C@H]2C(=O)N[C@H](CC[C@H](Cc2ccccc2)NC(=O)OCc2cncs2)Cc2ccccc2)cs1` [Compound 49] were 0.19 µM and 0.37 µM.
In the case of `CC(C)c1nc(CN(C)C(=O)N2CCC[C@H]2C(=O)N[C@H](CC[C@H](Cc2ccccc2)NC(=O)OCc2cncs2)Cc2ccccc2)cs1` [Compound 39], the IC50 by setting is: under setting [1], 0.13 µM; under setting [2], 0.26 µM.
Taken in the same sequence, the figures for `CC(C)c1nc(CN(C)C(=O)N2CCC[C@@H]2C(=O)N[C@H](CC[C@H](Cc2ccccc2)NC(=O)OCc2cncs2)Cc2ccccc2)cs1` [Compound 42] were 0.11 µM and 0.25 µM.
As for `CN[C@H]1C[C@@H](C(=O)N[C@H](CC[C@H](Cc2ccccc2)NC(=O)OCc2cncs2)Cc2ccccc2)N(C(=O)N(C)Cc2csc(C(C)C)n2)C1` [Compound 30], the IC50 runs as follows: under setting [1], 0.17 µM; under setting [2], 0.36 µM.
